Data: US6528516B1, “Methods for reducing intraocular pressure using A3 adenosine receptor antagonists” (Trustees of the University of Pennsylvania, The Center for …, priority 1998, dated 2003)

Key:
rabbit iris-ciliary body = assay: Short-circuit current across intact rabbit ciliary epithelium (iris-ciliary body), 5 mM Ba2+; conditions: 30 μM, solvent-corrected
Excerpt: Adult male Dutch belted rabbits weighing 1.8-2.4 kg (Ace Animals, Boyertown, Pa.) were anesthetized with pentobarbital and sacrificed (Carre et al., J. Membr. Biol. 146:293-305, 1995). After enucleation, the iris-ciliary body (I-CB) was isolated as previously described (Carre et al., 1995, supra.). The experiments were in accordance with the Resolution on the Use of Animals in Research of the Association for Research in Vision and Ophthalmology.
The pupil and central iris were occluded with a Lucite disc, and the iris-ciliary body was mounted between the two halves of a Lucite chamber (1). The annulus of exposed tissue provided a projected surface area of 0.93 cm^2. Preparations were continuously bubbled with 95%O2-5%CO2 for maintenance of pH 7.4 in a Ringer's solution comprising (in mM): 110.0 NaCl, 10.0HEPES (acid), 5.0HEPES (Na^+), 30.0 NaHCO3, 2.5 CaCl2, 1.2 MgCl2, 5.9 KCl, and 10.0 glucose, at an osmolality of 305 mOsm. BaCl2 (5 mM) was added to the solution to block K^+ currents. The transepithelial potential was fixed at 0 mV, corrected for solution series resistance, and the short-circuit current was monitored on a chart recorder. Data were digitally acquired at 10 Hz via a DigiData 1200A converter and AxoScope 1.1 software (Axon Instruments, Foster City, Calif.). Automatic averaging was performed with a reduction factor of 100 to achieve a final sampling rate of 6/min. […]

HCE cells = assay: Free intracellular Ca2+ in HCE cells (fura-2); type: cell-based, human
Protocol: In other cells, stimulation of the A3-receptor can lead to an elevation of intracellular Ca^2+(Kohno et al., supra.), so intracellular Ca^2+was monitored in HCE cells to provide an additional physiologic assay for the presence of A3 receptors. HCE cells grown on coverslips for 24-48 hrs were loaded with 1-5 μM fura-2 AM for 30-45 min at room temperature. The cells were subject to a post-incubation interval of 20-40 minutes at room temperature before recording began. The coverslips were mounted on a Nikon Diaphot microscope and visualized with a ×40 oil-immersion fluorescence objective. The emitted fluorescence (510 nm) from 10-12 confluent cells was acquired at a sampling frequency of 1 Hz following excitation at 340 nm and 380 nm, and the ratio was determined with a Delta-Ram system and Felix software (Photon Technology International Inc., Princeton, N.J.).Cells were perfused with an isotonic solution consisting of (in mM) 105 NaCl, 6HEPES (acid), 4HEPES (Na^+), 2 CaCl2, 1 MgCl2, 4 KCl, 5 glucose and 90 mannitol, at an osmolality of 327 mOsm, pH 7.4. […]
where Rmin and Rmax are the ratio of fluorescence at […] in the absence of Ca^2+, and in the presence of saturating Ca^2+, respectively. R is the ratio measured experimentally. The S2f and S2b are the fluorescence emitted at 380 nM in the Ca^2+ free and Ca^2+ bound states respectively. […]

human A3 receptor = target: T1, human A3 receptor (Homo sapiens, UniProt P0DMS8); assay: Adenylate cyclase assay, CHO cell membranes, forskolin stimulated; type: biochemical; conditions: forskolin 1 μM
T1 sequence (P0DMS8 1-318): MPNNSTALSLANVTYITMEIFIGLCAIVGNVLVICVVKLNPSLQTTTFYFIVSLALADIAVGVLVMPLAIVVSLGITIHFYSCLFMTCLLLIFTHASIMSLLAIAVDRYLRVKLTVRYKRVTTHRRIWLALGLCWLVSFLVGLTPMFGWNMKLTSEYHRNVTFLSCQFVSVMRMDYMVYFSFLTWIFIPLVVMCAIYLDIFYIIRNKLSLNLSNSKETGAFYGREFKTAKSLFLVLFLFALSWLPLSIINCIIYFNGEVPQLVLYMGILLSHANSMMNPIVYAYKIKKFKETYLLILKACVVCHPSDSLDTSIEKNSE

SMILES: CNC(=O)[C@H]1O[C@@H](n2cnc3c(NCc4cccc(I)c4)ncnc32)[C@H](O)[C@@H]1O [IB-MECA, N^6-(3-iodobenzyl)-adenosine-5′-N-methyluronamide]
- effect on short-circuit current (rabbit iris-ciliary body): significant increase in the short-circuit current
- mean rise of intracellular Ca2+ (HCE cells; 100 nM IB-MECA): 17 ± 5 nM
- mean rise of intracellular Ca2+ (HCE cells; 1 μM IB-MECA): 22 ± 6 nM
- Maximal inhibition of adenylate cyclase (human A3 receptor): ~60 % of total stimulation
